The experiment relates to skin. The note with it: guaranine 50 mg/mL, 1-2 mL solution or gel/100 cm^2 of skin, young subjects, compared to untreated subjects. The method, then: Bioactive molecules can be added and the mixture stirred for 30 minutes to 2 hours according to their liposoluble or water-soluble nature. The addition of collagen or gelatin (1-10%), Polawax™ (1-10%), cetyl alcohol (1-10%), fatty acids (stearic or palmitique, 1-10%), Tween™ 20% and terpenoid (i.e. limonene) is optional.

Regarding `Cn1c(=O)c2c(ncn2C)n(C)c1=O` [guaranine], the blood pressure entry is “considerable increase” and the pulsations entry is given as “considerable increase”.

The values are drawn from patent US20090076168A1, “AMINE-BASED AND IMINE-BASED POLYMERS, USES AND PREPARATION THEREOF” (priority 2005, published 2009).
